ChEMBL document CHEMBL4732258, “Pyxinol bearing amino acid residues: Easily achievable and promising modulators of P-glycoprotein-mediated multidrug resistance” (Eur J Med Chem, 2021)

Columns and labels:
[1] = Cytotoxicity against human KBV cells assessed as cell viability at 10 uM incubated for 72 hrs by MTT assay; format: cell-based; conditions: read-out: Activity
[2] = test system: KBV; assay: Reversal of Pgp-mediated paclitaxel resistance in human KBV cells assessed as cell viability at 10 uM in presence of paclitaxel incubated for 72 hrs by MTT assay; format: cell-based
[3] = test system: KBV; assay: Reversal of Pgp-mediated paclitaxel resistance in human KBV cells assessed as cell viability at 5 uM in presence of paclitaxel incubated for 72 hrs by MTT assay; format: cell-based
[4] = Antitumor activity against human KBV cells xenografted model assessed as reduction in tumor weight at 10 mg/kg in presence of 30 mg/kg paclitaxel; format: functional
[5] = test system: KBV; assay: Reversal of Pgp-mediated multidrug resistance in human KBV cells assessed as fold change in paclitaxel IC50 at 5 uM after 72 hrs in presence of paclitaxel by MTT assay relative to control; format: cell-based
[6] = test system: KBV; assay: Reversal of Pgp-mediated multidrug resistance in human KBV cells assessed as fold change in paclitaxel IC50 at 10 uM after 72 hrs in presence of paclitaxel by MTT assay relative to control; format: cell-based

Work on `CC(C)(C)OC(=O)C[C@H](NC(=O)OC(C)(C)C)C(=O)O[C@H]1CC[C@]2(C)[C@H]3C[C@@H](O)[C@@H]4[C@@H]([C@]5(C)CC[C@@H](C(C)(C)O)O5)CC[C@@]4(C)[C@]3(C)CC[C@H]2C1(C)C` yielded a viability at 72 h, 10 µM [1] of 88%, an Activity ([2]; filed as modulator) of 17% and an Activity ([3]; filed as modulator) of 35%.
`CC(C)(O)[C@H]1CC[C@@](C)([C@H]2CC[C@]3(C)[C@@H]2[C@H](O)C[C@@H]2[C@@]4(C)CC[C@H](O)C(C)(C)[C@@H]4CC[C@]23C)O1` gave a viability at 72 h, 10 µM [1] of 91%, an Activity [2] of 63% and an Activity [3] of 83%.
For `C[C@@H](OCc1ccccc1)[C@H](N)C(=O)O[C@H]1CC[C@]2(C)[C@H]3C[C@@H](O)[C@@H]4[C@@H]([C@]5(C)CC[C@H](C(C)(C)O)O5)CC[C@@]4(C)[C@]3(C)CC[C@H]2C1(C)C`, the viability at 72 h, 10 µM [1] was 20%, the Activity ([2]; filed as modulator) was 18% and the Activity ([3]; filed as modulator) was 31%.
`CC(C)(C)OC(=O)NCCCCCC(=O)N[C@H]1CC[C@]2(C)[C@H]3C[C@@H](O)[C@@H]4[C@@H]([C@]5(C)CC[C@H](C(C)(C)O)O5)CC[C@@]4(C)[C@]3(C)CC[C@H]2C1(C)C` gave an inhibition in vivo at 10 mg/kg [4] of 53.7%.
Molecule `CSCC[C@H](N)C(=O)O[C@H]1CC[C@]2(C)[C@H]3C[C@@H](O)[C@@H]4[C@@H]([C@]5(C)CC[C@@H](C(C)(C)O)O5)CC[C@@]4(C)[C@]3(C)CC[C@H]2C1(C)C` has a viability at 72 h, 10 µM [1] of 100%, an Activity ([2]; filed as modulator) of 31% and an Activity [3] of 56%. The fold change (FC) [5] was 0.4 and the fold change (FC) [6] was 6.
Molecule `CC(C)[C@H](NC(=O)OC(C)(C)C)C(=O)O[C@H]1CC[C@]2(C)[C@H]3C[C@@H](O)[C@@H]4[C@@H]([C@]5(C)CC[C@H](C(C)(C)O)O5)CC[C@@]4(C)[C@]3(C)CC[C@H]2C1(C)C` has a viability at 72 h, 10 µM [1] of 120%, an Activity ([2]; filed as modulator) of 20% and an Activity ([3]; filed as modulator) of 31%.
For `CC(C)(C)OC(=O)NCCCC[C@H](NC(=O)OC(C)(C)C)C(=O)O[C@H]1CC[C@]2(C)[C@H]3C[C@@H](O)[C@@H]4[C@@H]([C@]5(C)CC[C@H](C(C)(C)O)O5)CC[C@@]4(C)[C@]3(C)CC[C@H]2C1(C)C`, the viability at 72 h, 10 µM [1] was 147%, the Activity ([2]; filed as modulator) was 31% and the Activity ([3]; filed as modulator) was 34%.
